Data published in patent US10093713B2, “GIP-GLP-1 dual agonist compounds and methods” (priority 2013, dated 2018).
Like-named read-outs stand apart in the source and are kept apart here. *1 amine or outer side, *2 acyl side, *3 side chain or, on linkers, in order; H or OH if unused. Where a SMILES comes first, the peptide text is derived from it. Side-chain parts run from the residue outwards. [ ]: non-standard residue; d: D form. The star is where a group is joined. C20 diacid = O=C(O)CCCCCCCCCCCCCCCCCCC(=O)*; C18 diacid = O=C(O)CCCCCCCCCCCCCCCCC(=O)*; γGlu = O=C(O)[C@H](CCC(=O)[*:2])N[*:1]; AEEA = NCCOCCOCC(=O)O; Aib = CC(C)(N)C(=O)O

What was measured:
[1] = Pharmacokinetics of selected compounds in mice; format: in vivo, C57BL/6J mice; settings: mouse, plasma; for bioavailability: subcutaneous, AUCinf (s.c.)/AUCinf (i.v.)x100, values marked * capped to 100%
Method: Pharmacokinetics of Selected Compounds in Mice
C57BL/6J mice (males with a body weight of approximately 25 g) were given either a single subcutaneous (s.c.) bolus or a single intravenous (i.v.) bolus of each peptide to be tested.
Following s.c. administration of the selected compounds (50, 100 or 200 nmol/kg), blood samples were drawn at 8 (eight) timepoints up to 72 hours post-dose. Following i.v. administration of the selected compounds (50, 100 or 200 nmol/kg), blood samples were drawn at 8 (eight) timepoints up to 48 hours post-dose. Blood samples were drawn by sublingual bleeding. The dosing vehicle was a phosphate buffer containing mannitol (pH 7.5).
At each sampling time point, samples from two mice were drawn, i.e. 16 mice were included for each compound and each administration route. The mice were euthanized immediately after blood sampling by cervical dislocation. Plasma samples were analyzed after solid phase extraction (SPE) or protein precipitation followed by liquid chromatography mass spectrometry (LC-MS/MS). Mean plasma concentrations were used for calculation of the pharmacokinetic parameters using the non-compartmental approach in Phoenix WinNonlin 6.3. Plasma terminal elimination half-life (T½) was determined as […] where λz is the magnitude of the slope of the log linear regression of the log concentration versus time profile during the terminal phase. Bioavailability was determined as AUCinf (s.c.)/AUCinf (i.v.)×100, where AUCinf is the area under the plasma concentration−time curve extrapolated to infinity (AUCinf=AUClast+Clast/λz, where Clast is the last observed plasma concentration). Tmax is the post-dose time where the maximal plasma concentration was observed.

human GIP R = target: T1, human GIP R (Homo sapiens, UniProt P48546); test: Human GIP receptor (GIP R) activity assay, cAMP induction (AlphaScreen) in HEK293 cells; format: cell-based; settings: read-out: hGIP-R cAMP EC50 average value
T1 construct: expressed in transfected cells
T1 sequence (P48546 22-466): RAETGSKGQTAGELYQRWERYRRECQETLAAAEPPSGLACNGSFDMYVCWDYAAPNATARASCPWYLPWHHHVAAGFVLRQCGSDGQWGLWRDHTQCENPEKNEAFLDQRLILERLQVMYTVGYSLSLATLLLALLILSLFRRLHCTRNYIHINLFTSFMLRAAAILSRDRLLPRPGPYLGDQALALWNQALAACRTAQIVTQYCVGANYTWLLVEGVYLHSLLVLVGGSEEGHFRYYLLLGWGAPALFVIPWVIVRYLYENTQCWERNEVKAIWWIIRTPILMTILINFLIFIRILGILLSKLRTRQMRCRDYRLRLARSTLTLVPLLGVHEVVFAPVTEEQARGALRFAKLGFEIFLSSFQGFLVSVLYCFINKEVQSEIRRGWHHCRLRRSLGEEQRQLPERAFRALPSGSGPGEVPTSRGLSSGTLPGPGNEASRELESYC
Outline: (§1)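 Stable HEK293 clones expressing human GIP R or GLP-1 R, seeded 1 day before; cells washed in Tyrode's buffer (10 mM HEPES, pH 7.4), stimulated, then lysed. cAMP measured by AlphaScreen bead competition (1 h, room temperature, dark). EC50 = concentration giving half-maximal cAMP elevation, from curves of absolute cAMP (nM) vs log concentration.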

human GLP-1 R = target: T2, human GLP-1 R (Homo sapiens, UniProt P43220); test: Human GLP-1 receptor (GLP-1 R) activity assay, cAMP induction (AlphaScreen) in HEK293 cells; format: cell-based
T2 construct: expressed in transfected cells
Outline: as §1

[2] = male, C57BL/6J, iv, single i.v. bolus, read-out: T½ terminal elimination half-life, i.v. (converted)
[3] = male, C57BL/6J, sc, single s.c. bolus
[4] = Table 2, HEK293 cells expressing human GIP R
[5] = Table 2a, secondary assay study
[6] = Table 3, most comprehensive data
[7] = Table 2, HEK293 cells expressing human GLP-1 R, read-out: hGLP1-R cAMP EC50 average value
[8] = Table 2a, secondary assay study, read-out: hGLP1-R cAMP EC50 average value

T2 sequence (P43220 24-463): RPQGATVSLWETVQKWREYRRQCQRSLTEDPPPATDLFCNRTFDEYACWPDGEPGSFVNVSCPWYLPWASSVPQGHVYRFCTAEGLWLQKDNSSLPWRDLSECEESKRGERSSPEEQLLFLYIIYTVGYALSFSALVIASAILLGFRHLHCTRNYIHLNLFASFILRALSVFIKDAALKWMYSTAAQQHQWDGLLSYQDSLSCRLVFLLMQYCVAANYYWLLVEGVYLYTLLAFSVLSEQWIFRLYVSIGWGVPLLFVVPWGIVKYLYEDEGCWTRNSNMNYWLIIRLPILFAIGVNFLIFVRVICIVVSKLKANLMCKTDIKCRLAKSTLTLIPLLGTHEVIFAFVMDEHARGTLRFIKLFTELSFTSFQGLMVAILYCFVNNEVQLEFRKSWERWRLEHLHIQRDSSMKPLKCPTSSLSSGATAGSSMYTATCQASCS

SMILES	half-life [1, 2] [h]	bioavailability ([1]; male, C57BL/6J) [%]	Tmax [1, 3] [h]	EC50 (human GIP R; [4]) [pM]	EC50 (human GIP R; [5]) [pM]	EC50 (human GIP R; [6]) [pM]	EC50 (human GLP-1 R; [7]) [pM]	EC50 (human GLP-1 R; [8]) [pM]	half-life ([1]; iv, single i.v. bolus, read-out: T½ terminal elimination half-life, i.v. (converted)) [h]	bioavailability [1] [%]	Tmax ([1]; sc, single s.c. bolus) [h]	half-life ([1]; sc, single s.c. bolus, read-out: T½ terminal elimination half-life, s.c. (converted)) [h]	EC50 (human GLP-1 R; Table 3, most comprehensive data, read-out: hGLP-1-R cAMP EC50 average value) [pM]
CC[C@H](C)[C@H](NC(=O)[C@H](CO)NC(=O)[C@H](Cc1ccc(O)cc1)NC(=O)[C@H](CC(=O)O)NC(=O)[C@H](CO)NC(=O)[C@@H](NC(=O)[C@H](Cc1ccccc1)NC(=O)[C@@H](NC(=O)CNC(=O)[C@H](CCC(=O)O)NC(=O)C(C)(C)NC(=O)[C@@H](N)Cc1ccc(O)cc1)[C@@H](C)O)[C@@H](C)O)C(=O)N[C@@H](Cc1ccc(O)cc1)C(=O)N[C@@H](CC(C)C)C(=O)N[C@@H](CC(=O)O)C(=O)N[C@@H](CCCCN)C(=O)N[C@@H](CCCCNC(=O)CC[C@H](NC(=O)CCCCCCCCCCCCCCCCC(=O)O)C(=O)O)C(=O)N[C@@H](C)C(=O)N[C@@H](CCC(N)=O)C(=O)N[C@@H](CCCNC(=N)N)C(=O)N[C@@H](C)C(=O)N[C@@H](Cc1ccccc1)C(=O)N[C@H](C(=O)N[C@@H](CCC(=O)O)C(=O)N[C@@H](Cc1c[nH]c2ccccc12)C(=O)N[C@@H](CC(C)C)C(=O)N[C@@H](CC(C)C)C(=O)N[C@@H](C)C(=O)N[C@@H](CCC(N)=O)C(=O)NCC(=O)N1CCC[C@H]1C(=O)N[C@@H](CO)C(=O)N[C@@H](CO)C(=O)NCC(=O)N[C@@H](C)C(=O)N1CCC[C@H]1C(=O)N1CCC[C@H]1C(=O)N1CCC[C@H]1C(=O)N[C@@H](CO)C(N)=O)C(C)C [Compound 3] (H-Y[Aib]EGTFTSDYSIYLDKK([γGlu-C18 diacid])AQRAFVEWLLAQGPSSGAPPPS-NH2)	9.1	89	8	8.6	9	9	11	11	–	–	–	–	–
CC[C@H](C)[C@H](NC(=O)[C@H](CO)NC(=O)[C@H](Cc1ccc(O)cc1)NC(=O)[C@H](CC(=O)O)NC(=O)[C@H](CO)NC(=O)[C@@H](NC(=O)[C@H](Cc1ccccc1)NC(=O)[C@@H](NC(=O)CNC(=O)[C@H](CCC(=O)O)NC(=O)C(C)(C)NC(=O)[C@@H](N)Cc1ccc(O)cc1)[C@@H](C)O)[C@@H](C)O)C(=O)N[C@@H](Cc1ccc(O)cc1)C(=O)N[C@@H](CC(C)C)C(=O)N[C@@H](CC(=O)O)C(=O)N[C@@H](CCCCN)C(=O)N[C@@H](CCCCNC(=O)CNC(=O)CNC(=O)[C@H](CO)NC(=O)CNC(=O)[C@H](CO)NC(=O)CNC(=O)CC[C@H](NC(=O)CCCCCCCCCCCCCCCCC(=O)O)C(=O)O)C(=O)N[C@@H](C)C(=O)N[C@@H](CCC(N)=O)C(=O)N[C@@H](CCCNC(=N)N)C(=O)N[C@@H](C)C(=O)N[C@@H](Cc1ccccc1)C(=O)N[C@H](C(=O)N[C@@H](CCC(=O)O)C(=O)N[C@@H](Cc1c[nH]c2ccccc12)C(=O)N[C@@H](CC(C)C)C(=O)N[C@@H](CC(C)C)C(=O)N[C@@H](C)C(=O)N[C@@H](CCC(N)=O)C(=O)NCC(=O)N1CCC[C@H]1C(=O)N[C@@H](CO)C(=O)N[C@@H](CO)C(=O)NCC(=O)N[C@@H](C)C(=O)N1CCC[C@H]1C(=O)N1CCC[C@H]1C(=O)N1CCC[C@H]1C(=O)N[C@@H](CO)C(N)=O)C(C)C [Compound 4]	–	–	–	8.7	9	9	10	–	8.7	100	6	10.8	–
CC[C@H](C)[C@H](NC(=O)[C@H](CO)NC(=O)[C@H](Cc1ccc(O)cc1)NC(=O)[C@H](CC(=O)O)NC(=O)[C@H](CO)NC(=O)[C@@H](NC(=O)[C@H](Cc1ccccc1)NC(=O)[C@@H](NC(=O)CNC(=O)[C@H](CCC(=O)O)NC(=O)C(C)(C)NC(=O)[C@@H](N)Cc1ccc(O)cc1)[C@@H](C)O)[C@@H](C)O)C(=O)N[C@@H](Cc1ccc(O)cc1)C(=O)N[C@@H](CC(C)C)C(=O)N[C@@H](CC(=O)O)C(=O)N[C@@H](CCCCN)C(=O)N[C@@H](CCCCNC(=O)COCCOCCNC(=O)COCCOCCNC(=O)COCCOCCNC(=O)CC[C@H](NC(=O)CCCCCCCCCCCCCCCCCCC(=O)O)C(=O)O)C(=O)N[C@@H](C)C(=O)N[C@@H](CCC(N)=O)C(=O)N[C@@H](CCCNC(=N)N)C(=O)N[C@@H](C)C(=O)N[C@@H](Cc1ccccc1)C(=O)N[C@H](C(=O)N[C@@H](CCC(=O)O)C(=O)N[C@@H](Cc1c[nH]c2ccccc12)C(=O)N[C@@H](CC(C)C)C(=O)N[C@@H](CC(C)C)C(=O)N[C@@H](C)C(=O)N[C@@H](CCC(N)=O)C(=O)NCC(=O)N1CCC[C@H]1C(=O)N[C@@H](CO)C(=O)N[C@@H](CO)C(=O)NCC(=O)N[C@@H](C)C(=O)N1CCC[C@H]1C(=O)N1CCC[C@H]1C(=O)N1CCC[C@H]1C(=O)N[C@@H](CO)C(N)=O)C(C)C [Compound 8] (H-Y[Aib]EGTFTSDYSIYLDKK([AEEA-AEEA-AEEA-γGlu-C20 diacid])AQRAFVEWLLAQGPSSGAPPPS-NH2)	17.2	54	8	5.3	5	5	12	12	–	–	–	–	–
CC[C@H](C)[C@H](NC(=O)[C@H](CO)NC(=O)[C@H](Cc1ccc(O)cc1)NC(=O)[C@H](CC(=O)O)NC(=O)[C@H](CO)NC(=O)[C@@H](NC(=O)[C@H](Cc1ccccc1)NC(=O)[C@@H](NC(=O)CNC(=O)[C@H](CCC(=O)O)NC(=O)C(C)(C)NC(=O)[C@@H](N)Cc1ccc(O)cc1)[C@@H](C)O)[C@@H](C)O)C(=O)N[C@@H](C)C(=O)N[C@@H](CC(C)C)C(=O)N[C@@H](CC(=O)O)C(=O)N[C@@H](CCCCN)C(=O)N[C@@H](CCCCNC(=O)COCCOCCNC(=O)COCCOCCNC(=O)CC[C@H](NC(=O)CCCCCCCCCCCCCCCCCCC(=O)O)C(=O)O)C(=O)N[C@@H](C)C(=O)N[C@@H](CCC(N)=O)C(=O)N[C@@H](CCCNC(=N)N)C(=O)N[C@@H](C)C(=O)N[C@@H](Cc1ccccc1)C(=O)N[C@H](C(=O)N[C@@H](CC(N)=O)C(=O)N[C@@H](Cc1c[nH]c2ccccc12)C(=O)N[C@@H](CC(C)C)C(=O)N[C@H](C(=O)N[C@@H](C)C(=O)NC(C)(C)C(=O)N[C@@H](CCCCN)C(=O)N1CCC[C@H]1C(=O)N[C@@H](CO)C(=O)N[C@@H](CO)C(=O)NCC(=O)N[C@@H](C)C(=O)N1CCC[C@H]1C(=O)N1CCC[C@H]1C(=O)N1CCC[C@H]1C(=O)N[C@@H](CO)C(N)=O)C(C)C)C(C)C [Compound 15]	17.3	95	8	8	–	8	8.8	–	–	–	–	–	9
CC[C@H](C)[C@H](NC(=O)[C@H](CO)NC(=O)[C@H](Cc1ccc(O)cc1)NC(=O)[C@H](CC(=O)O)NC(=O)[C@H](CO)NC(=O)[C@@H](NC(=O)[C@H](Cc1ccccc1)NC(=O)[C@@H](NC(=O)CNC(=O)[C@H](CCC(=O)O)NC(=O)C(C)(C)NC(=O)[C@@H](N)Cc1ccc(O)cc1)[C@@H](C)O)[C@@H](C)O)C(=O)N[C@@H](C)C(=O)N[C@@H](CC(C)C)C(=O)N[C@@H](CCC(=O)O)C(=O)N[C@@H](CCCCN)C(=O)N[C@@H](CCCCNC(=O)COCCOCCNC(=O)COCCOCCNC(=O)CC[C@H](NC(=O)CCCCCCCCCCCCCCCCC(=O)O)C(=O)O)C(=O)N[C@@H](C)C(=O)N[C@@H](CCC(N)=O)C(=O)N[C@@H](CCCNC(=N)N)C(=O)N[C@@H](C)C(=O)N[C@@H](Cc1ccccc1)C(=O)N[C@H](C(=O)N[C@@H](CCC(=O)O)C(=O)N[C@@H](Cc1c[nH]c2ccccc12)C(=O)N[C@@H](CC(C)C)C(=O)N[C@@H](CC(C)C)C(=O)N[C@@H](C)C(=O)N[C@@H](CCC(N)=O)C(=O)N[C@@H](CCCCN)C(N)=O)C(C)C [Compound 16] (H-Y[Aib]EGTFTSDYSIALEKK([AEEA-AEEA-γGlu-C18 diacid])AQRAFVEWLLAQK-NH2)	7.4	50	6	8.1	–	8	15	–	–	–	–	–	–
